Data as given in US12318388B2, “Pyrimidine derivatives for prevention and treatment of gram-negative bacterial infection, contamination and fouling” (UNIVERSITÉ DE LIÈGE, priority 2019, dated 2025).
Converted amounts (≈) assume the structure as drawn. “And” between values parts separate entries of the source, which are not always exact repeats. Identical values can stand only once. “Also recorded” adds a separate entry of the source.

Columns and labels:
Format in all cases: cell-based
[1] = test system: Escherichia coli (ATCC 8739); assay: Minimal Inhibitory Concentration (MIC) on Escherichia coli with or without PMBN, OD600 after O/N growth; details: for MIC: molecule alone
Experimental: The Minimal Inhibitory Concentration (MIC) of molecules 2329, 2412, 2452 and 2461 together with polymyxin B nonapeptide (PMBN) was determined on Escherichia coli (ATCC 8739) according to EUCAST (European Committee on Antimicrobial Susceptibility Testing) recommendations.
(§1) Briefly, a single colony grown on a Luria-Bertani Agar (LB) plate was resuspended and cultured in the LB medium overnight (O/N) in aerobic conditions (37° C. with 220 rpm shaking), next day a 1:50 inoculum in Mueller-Hinton broth (MHB) was incubated in aerobic conditions for 1h30 (OD=0.08-0.1) and an inoculum of 1:300 dilution, corresponding to 3×10^6 CFU/ml, was incubated in presence or absence of different concentrations of the molecules in 1% DMSO (vehicle) with or without Polymyxin B nonapeptide (PMBN) at 40 μg/ml. After O/N growth the OD of each culture was measured at 600 nm in a spectrophotometer (OD600). The MIC represents the concentration at which there is no visible growth of bacteria, i.e. ΔOD at 600 nm equal to zero wherein ΔOD is the difference between the resulting optical density (OD) with the molecule together with PMBN, and the optical density (OD) of the blank (blank is the medium) alone.
(§2) A single colony grown on an Lurian-Bertani (LB) agar plate is resuspended and cultured in LB medium overnight (O/N) in aerobic conditions (37° C. with 220 rpm shaking), next day a 1:50 inoculum in Mueller-Hinton broth (MHB) is incubated in aerobic conditions for 1h30 (OD=0.08-0.1) and an inoculum of 1:300 dilution, corresponding to 3×10^6 CFU/ml, is incubated in presence or absence of different concentrations of the tested molecules in 1% DMSO (vehicle) with or without PMBN at 40 μg/ml. After O/N growth the OD of each culture was measured at 600 nm (OD600) in a spectrophotometer (Victor 3-Perkin Elmer). The MIC represents the concentration at which there is no visible growth of bacteria, i.e. ΔOD at 600 nm equal to zero wherein ΔOD is the difference between the resulting optical density (OD) with the molecule together with PMBN, and the optical density (OD) of the blank (blank is the medium) alone.
as §1, with “cultured in LB medium” for “cultured in the LB medium”, “of the above-mentioned molecules in” for “of the molecules in”
as §2, with “a Luria-Bertani” for “an Lurian-Bertani”, “above-mentioned pyrazolopyrimidine molecule” for “tested molecules”, “alone. […]” for “alone.”

[2] = test system: Pseudomonas aeruginosa (ATCC27853); assay: Minimal Inhibitory Concentration (MIC) on Pseudomonas aeruginosa with or without PMBN
Experimental: A single colony grown on an tryptic soy agar plate is resuspended and cultured in tryptic soy broth medium overnight (O/N) in aerobic conditions (37° C. with 220 rpm shaking), next day a 1:100 inoculum in Mueller-Hinton broth (MHB) is incubated in aerobic conditions for 3h (OD=0.5-0.6) and an inoculum of 1:1000 dilution, corresponding to 1-3×10^5 CFU/ml, is incubated in presence or absence of different concentrations of the tested molecules in 1% DMSO (vehicle) with or without PMBN at 0.5 μg/ml. After 28-30h growth the OD of each culture was measured at 600 nm (OD600) in a spectrophotometer (Victor 3-Perkin Elmer). The MIC represents the concentration at which there is no visible growth of bacteria, i.e. ΔOD at 600 nm equal to zero (blank is the medium alone) wherein ΔOD is the difference between the resulting optical density (OD) with the molecule together with PMBN, and the optical density (OD) of the blank (blank is the medium) alone.

[3] = test system: E. coli (ATCC 8739) biofilm; assay: Inhibition of E. coli biofilm formation (crystal violet, biofilm mass); details: for E. coli biofilm mass expressed in percentage: replicate values
Experimental: 1.5×10^4 CFU of E. coli (ATCC 8739) in early logarithmic phase were added in a well of a 48-well polystyrene plate containing Luria Bertani (LB) medium supplemented with 5% mannose (purchased from Sigma-aldrich #M6020-25G) and incubated for 48h at 37° C. The incubation was carried in static conditions in presence or absence of different concentrations of the molecules 2329 or 2666 in combination or not with the penetrating agent polymyxin B nonapeptide (PMBN) (35 μg/ml) (provided by Sigma-aldrich #P2076-5MG). After incubation, planktonic bacteria, which are bacteria floating in the liquid medium, were removed and adherent bacteria were washed 2 times in PBS. Crystal Violet (Sigma-aldrich #C0775-25G) (1% solution in dH2O) was then added to the wells for 15 min at RT to stain the biofilm. Wells were washed 3 times with PBS (phosphate buffered saline provided by Lonza #17-516F) to eliminate unbound crystal violet and […] Acetic Acid 20% was added and incubated at RT for 10 min. The absorbance of the solution was measured at 570 nm with an Infinite 200 PRO (Tecan) reflecting the total biomass of the biofilm, which corresponds to the sum of live and dead bacteria. The Biofilm Mass, expressed in percentage, is calculated by the following formula: Abs(sample)/Abs(DMSO 1%)*100, wherein the Abs(sample) or Abs(DMSO) represents the difference between the absorbance of the sample or DMSO and the blank (blank is the medium alone without bacteria).

Compound	OD600 nm after O/N growth of Escherichia coli (FIG. 4) ([1]; 10 μM with 40 μg/ml PMBN)	MIC ([1]; E. coli (ATCC 8739)) [µM]	Minimal inhibitory concentration With PMBN ([1]; E. coli (ATCC 8739), together with PMBN at 40 μg/ml) [µM]	MIC ([1]; Escherichia coli, ATCC8739, E. coli (ATCC 8739)) [µM]	Activity against Escherichia coli (ATCC 8739), conclusion ([1]; with 40 μg/ml PMBN)	Minimal inhibitory concentration without PMBN ([2]; Pseudomonas aeruginosa (ATCC 27853), molecule alone) [µM]	Minimal inhibitory concentration With PMBN ([2]; Pseudomonas aeruginosa (ATCC 27853), together with PMBN at 0.5 μg/ml) [µM]	Effect on E. coli biofilm formation (FIG. 2) ([3]; 5 μM combined with 35 μg/ml PMBN)	E. coli biofilm mass expressed in percentage ([3]; 2329 20 μM without PMBN)	E. coli biofilm mass expressed in percentage ([3]; P + 2329 5 μM (PMBN 35 μg/ml))	E. coli biofilm mass expressed in percentage ([3]; P + 2329 10 μM (PMBN 35 μg/ml))	Effect on E. coli biofilm growth (FIG. 2) ([3]; molecule alone, without PMBN)	Inhibition of E. coli growth by PMBN alone ([1]; 40 μg/ml PMBN alone)	Inhibition of Pseudomonas aeruginosa growth by PMBN alone ([2]; 0.5 μg/ml PMBN alone)	Effect on E. coli biofilm growth (FIG. 2) ([3]; PMBN 35 μg/ml alone)	E. coli biofilm mass expressed in percentage ([3]; PMBN 35 μg/ml alone)
CCCSc1nc(N[C@@H]2C[C@H]2c2ccc(F)c(F)c2)c2ncn(C)c2n1 [molecule 2329, N-((1R,2S)-2-(3,4-difluorophenyl)cyclopropyl)-9-methyl-2-(propylthio)-9H-purin-6-amine]	killed all bacteria	>100	10 (≈ 3.75 µg/mL)	> 100	bactericidal activity	>100	50 (≈ 18.8 µg/mL)	fully inhibited	110.45 percentage and 124.24 percentage and 97.41 percentage and 107.12 percentage	12.79 percentage and 11.45 percentage and −1.25 percentage and −1.59 percentage	0.12 percentage and −1.01 percentage and 2.96 percentage and 3.11 percentage	no effect	–	–	–	–
Polymyxin B nonapeptide [PMBN, reference compound]	–	–	–	–	–	–	–	–	–	–	–	–	unable to inhibit; also recorded: did not inhibit	did not inhibit	reduced by half	47.94 percentage and 48.98 percentage and 53.90 percentage and 50.87 percentage
